{"source": "patent US10770169B2", "about": "“Method of providing a treatment to a subject based on a dynamic pathway map” (THE REGENTS OF THE UNIVERSITY OF CALIFORNIA, priority 2010, dated 2020)", "tested_on": "panel of 55 breast cancer cell lines", "assay": "Cell growth inhibition assay (Cell Titer Glo, 72 h, 9 doses; GI50, TGI, LC50)", "format": "cell-based, human", "conditions": "value is the negative log10 of mol/L", "key": {"[1]": {"conditions": "AU565 cell line, censored GI50 values"}, "[2]": {"conditions": "BT474 cell line, censored GI50 values"}, "[3]": {"conditions": "BT483 cell line, censored GI50 values"}, "[4]": {"conditions": "CAMA1 cell line, censored GI50 values"}, "[5]": {"conditions": "HCC38 cell line, censored GI50 values"}, "[6]": {"conditions": "HCC70 cell line, censored GI50 values"}, "[7]": {"conditions": "HCC1143 cell line, censored GI50 values"}, "[8]": {"conditions": "HCC1187 cell line, censored GI50 values"}, "[9]": {"conditions": "HCC1395 cell line, censored GI50 values"}, "[10]": {"conditions": "HCC1419 cell line, censored GI50 values"}, "[11]": {"conditions": "HCC1428 cell line, censored GI50 values"}, "[12]": {"conditions": "HCC1500 cell line, censored GI50 values"}, "[13]": {"conditions": "HCC1806 cell line, censored GI50 values"}, "[14]": {"conditions": "HCC1937 cell line, censored GI50 values"}, "[15]": {"conditions": "HCC1954 cell line, censored GI50 values"}, "[16]": {"conditions": "HCC2185 cell line, censored GI50 values"}, "[17]": {"conditions": "HCC3153 cell line, censored GI50 values"}, "[18]": {"conditions": "MCF7 cell line, censored GI50 values"}, "[19]": {"conditions": "MDAMB134VI cell line, censored GI50 values"}, "[20]": {"conditions": "MDAMB157 cell line, censored GI50 values"}, "[21]": {"conditions": "MDAMB175VII cell line, censored GI50 values"}, "[22]": {"conditions": "MDAMB231 cell line, censored GI50 values"}, "[23]": {"conditions": "MDAMB361 cell line, censored GI50 values"}, "[24]": {"conditions": "MDAMB415 cell line, censored GI50 values"}, "[25]": {"conditions": "MDAMB436 cell line, censored GI50 values"}, "[26]": {"conditions": "MDAMB453 cell line, censored GI50 values"}, "[27]": {"conditions": "MDAMB468 cell line, censored GI50 values"}, "[28]": {"conditions": "SKBR3 cell line, censored GI50 values"}, "[29]": {"conditions": "SUM149PT cell line, censored GI50 values"}, "[30]": {"conditions": "SUM159PT cell line, censored GI50 values"}, "[31]": {"conditions": "SUM185PE cell line, censored GI50 values"}, "[32]": {"conditions": "SUM1315MO2 cell line, censored GI50 values"}}}
{"smiles": "C[C@@H](Oc1cc(-n2cnc3ccc(CN4CCN(C)CC4)cc32)sc1C(N)=O)c1ccccc1C(F)(F)F", "note": "[GSK461364A]", "values": [{"measurement": "GI50", "setting": "600MPE cell line, censored GI50 values", "result": 5.16}, {"measurement": "GI50", "setting": "[1]", "result": 8.35}, {"measurement": "GI50", "setting": "[2]", "result": 5.07}, {"measurement": "GI50", "setting": "[3]", "result": 5.35}, {"measurement": "GI50", "setting": "[4]", "result": 5.17}, {"measurement": "GI50", "setting": "[5]", "result": 7.42}, {"measurement": "GI50", "setting": "[6]", "result": 7.01}, {"measurement": "GI50", "setting": "[7]", "result": 7.13}, {"measurement": "GI50", "setting": "[8]", "result": 7.48}, {"measurement": "GI50", "setting": "[9]", "result": 8.31}, {"measurement": "GI50", "setting": "[10]", "result": 5.12}, {"measurement": "GI50", "setting": "[11]", "result": 5.26}, {"measurement": "GI50", "setting": "[12]", "result": 7.89}, {"measurement": "GI50", "setting": "[13]", "result": 7.95}, {"measurement": "GI50", "setting": "[14]", "result": 7.51}, {"measurement": "GI50", "setting": "[15]", "result": 8.16}, {"measurement": "GI50", "setting": "[16]", "result": 8.26}, {"measurement": "GI50", "setting": "[17]", "result": 7.50}, {"measurement": "GI50", "setting": "[18]", "result": 7.82}, {"measurement": "GI50", "setting": "[19]", "result": 7.83}, {"measurement": "GI50", "setting": "[20]", "result": 8.98}, {"measurement": "GI50", "setting": "[21]", "result": 5.21}, {"measurement": "GI50", "setting": "[22]", "result": 7.68}, {"measurement": "GI50", "setting": "[23]", "result": 8.72}, {"measurement": "GI50", "setting": "[24]", "result": 7.08}, {"measurement": "GI50", "setting": "[25]", "result": 7.90}, {"measurement": "GI50", "setting": "[26]", "result": 7.97}, {"measurement": "GI50", "setting": "[27]", "result": 8.41}, {"measurement": "GI50", "setting": "[28]", "result": 7.78}, {"measurement": "GI50", "setting": "[29]", "result": 7.72}, {"measurement": "GI50", "setting": "[30]", "result": 7.49}, {"measurement": "GI50", "setting": "[31]", "result": 5.66}, {"measurement": "GI50", "setting": "[32]", "result": 7.51}, {"measurement": "GI50", "setting": "cell line 600MPE", "result": 5.16}, {"measurement": "GI50", "setting": "cell line AU565", "result": 8.35}]}
{"smiles": "CC(C)Oc1ccc(C(=O)N[C@H](CNC(=O)CN(C)C)Cc2ccc(-c3cn4cccc([C@H](C)O)c4n3)cc2)cc1Cl", "note": "[GSK923295]", "values": [{"measurement": "GI50", "setting": "[1]", "result": 7.62}, {"measurement": "GI50", "setting": "[2]", "result": 5.42}, {"measurement": "GI50", "setting": "[3]", "result": 6.44}, {"measurement": "GI50", "setting": "[4]", "result": 7.33}, {"measurement": "GI50", "setting": "[5]", "result": 7.32}, {"measurement": "GI50", "setting": "[6]", "result": 7.68}, {"measurement": "GI50", "setting": "HCC202 cell line, censored GI50 values", "result": 7.77}, {"measurement": "GI50", "setting": "[7]", "result": 6.77}, {"measurement": "GI50", "setting": "[8]", "result": 7.52}, {"measurement": "GI50", "setting": "[9]", "result": 7.33}, {"measurement": "GI50", "setting": "[10]", "result": 5.72}, {"measurement": "GI50", "setting": "[11]", "result": 5.21}, {"measurement": "GI50", "setting": "[12]", "result": 7.28}, {"measurement": "GI50", "setting": "[13]", "result": 7.34}, {"measurement": "GI50", "setting": "[14]", "result": 7.20}, {"measurement": "GI50", "setting": "[15]", "result": 7.62}, {"measurement": "GI50", "setting": "[16]", "result": 7.43}, {"measurement": "GI50", "setting": "[17]", "result": 7.22}, {"measurement": "GI50", "setting": "[18]", "result": 5.90}, {"measurement": "GI50", "setting": "[19]", "result": 5.50}, {"measurement": "GI50", "setting": "[20]", "result": 7.50}, {"measurement": "GI50", "setting": "[21]", "result": 6.76}, {"measurement": "GI50", "setting": "[22]", "result": 7.34}, {"measurement": "GI50", "setting": "[23]", "result": 7.42}, {"measurement": "GI50", "setting": "[24]", "result": 7.28}, {"measurement": "GI50", "setting": "[25]", "result": 7.59}, {"measurement": "GI50", "setting": "[26]", "result": 6.96}, {"measurement": "GI50", "setting": "[27]", "result": 7.61}, {"measurement": "GI50", "setting": "[28]", "result": 7.34}, {"measurement": "GI50", "setting": "[29]", "result": 7.17}, {"measurement": "GI50", "setting": "[30]", "result": 7.43}, {"measurement": "GI50", "setting": "[31]", "result": 5.42}, {"measurement": "GI50", "setting": "[32]", "result": 7.44}, {"measurement": "GI50", "setting": "cell line 600MPE", "result": 4.48}, {"measurement": "GI50", "setting": "cell line AU565", "result": 7.62}, {"measurement": "GI50", "setting": "cell line BT474", "result": 5.42}, {"measurement": "GI50", "setting": "cell line BT483", "result": 6.44}, {"measurement": "GI50", "setting": "cell line CAMA1", "result": 7.33}, {"measurement": "GI50", "setting": "cell line HCC38", "result": 7.32}, {"measurement": "GI50", "setting": "cell line HCC70", "result": 7.68}, {"measurement": "GI50", "setting": "cell line HCC202", "result": 7.77}, {"measurement": "GI50", "setting": "cell line HCC1143", "result": 6.77}, {"measurement": "GI50", "setting": "cell line HCC1187", "result": 7.52}, {"measurement": "GI50", "setting": "cell line HCC1395", "result": 7.33}, {"measurement": "GI50", "setting": "cell line HCC1419", "result": 5.72}, {"measurement": "GI50", "setting": "cell line HCC1428", "result": 5.21}, {"measurement": "GI50", "setting": "cell line HCC1500", "result": 7.28}, {"measurement": "GI50", "setting": "cell line HCC1806", "result": 7.34}, {"measurement": "GI50", "setting": "cell line HCC1937", "result": 7.20}, {"measurement": "GI50", "setting": "cell line HCC1954", "result": 7.62}, {"measurement": "GI50", "setting": "cell line HCC2185", "result": 7.43}, {"measurement": "GI50", "setting": "cell line HCC3153", "result": 7.22}, {"measurement": "GI50", "setting": "cell line MCF7", "result": 5.90}, {"measurement": "GI50", "setting": "cell line MDAMB134V", "result": 5.50}, {"measurement": "GI50", "setting": "cell line MDAMB157", "result": 7.50}, {"measurement": "GI50", "setting": "cell line MDAMB175V", "result": 6.76}, {"measurement": "GI50", "setting": "cell line MDAMB231", "result": 7.34}, {"measurement": "GI50", "setting": "cell line MDAMB361", "result": 7.42}, {"measurement": "GI50", "setting": "cell line MDAMB415", "result": 7.28}, {"measurement": "GI50", "setting": "cell line MDAMB436", "result": 7.59}, {"measurement": "GI50", "setting": "cell line MDAMB453", "result": 6.96}, {"measurement": "GI50", "setting": "cell line MDAMB468", "result": 7.61}, {"measurement": "GI50", "setting": "cell line SKBR3", "result": 7.34}, {"measurement": "GI50", "setting": "cell line SUM52PE", "result": 7.64}, {"measurement": "GI50", "setting": "cell line SUM149PT", "result": 7.17}, {"measurement": "GI50", "setting": "cell line SUM159PT", "result": 7.43}, {"measurement": "GI50", "setting": "cell line SUM185PE", "result": 5.42}, {"measurement": "GI50", "setting": "cell line SUM1315MO", "result": 7.44}, {"measurement": "GI50", "setting": "cell line UACC812", "result": 7.92}, {"measurement": "GI50", "setting": "cell line UACC893", "result": 7.91}, {"measurement": "GI50", "setting": "cell line ZR75B", "result": 7.15}, {"measurement": "GI50", "setting": "cell line ZR751", "result": 6.92}, {"measurement": "GI50", "setting": "cell line ZR7530", "result": 7.68}]}
